According to patent US20240400572A1, “COMPOUNDS AND METHODS FOR TREATING CANCERS THAT ARE MGMT DEFICIENT REGARDLESS OF MMR STATUS” (Yale University, priority 2021, published 2024):
Where a name gives a salt, the structure may show the parent alone.

How the values were obtained:
Assay in all cases: Anticancer activity towards LN229 human brain glioblastoma cells (nuclei count after 120 hours)
Type in all cases: cell-based
Settings in all cases: LN-229, LN229 quad cells, 200 μM to 0.1 uM
LN229 MGMT+ MMR+ cells = test system: LN229 MGMT+ MMR+ cells
Experimental: (§1) Exemplary compounds were evaluated for activity against LN229 human brain glioblastoma cells. Experimental procedures and results are provided elsewhere herein.
(§2) LN229 quad cells were maintained in Dulbecco's Modified Eagle Medium (DMEM) supplemented with 10% fetal bovine serum. Cells were plated into sterile black with glass bottom 384-well plates (Cellvis) at a concentration of 1,000 cells/well (20 μL total volume) using a MultiDrop (Thermo Fisher). Then, assay plates were centrifuged at 300 rpm for 2 seconds and incubated overnight in a 37° C. 5% CO2 incubator. Compounds were prepared as 100 mM stocks in DMSO and stored protected from light at −20′C until use. Prior to compound addition, the stock solutions of compound were diluted two-fold serially in DMSO from 100 mM down to 0.05 mM in a 384-well Source plate. Vehicle control wells containing DMSO and positive control wells containing 10 mM bortezomib were also added to the Source plate. An aliquot in the amount of 40 nL of compound stock solution or DMSO vehicle was transferred from the source plate to the cell assay plate using an Echo Acoustic dispense (Beckman). Three replicate dilution curves of each compound were run on each assay plate. An aliquot in the amount of 120 nL of a 10 mM bortezomib solution was transferred to the positive control wells resulting in a final concentration of 60 μM. The final concentration of compounds ranged from 200 μM to 0.1 uM (12-point, 2-fold dilution dose response curve), and the final DMSO concentration was 0.2%.
(§3) Assay plates were centrifuged at 500 rpm for 2 seconds and incubated for 120 hours at 37° C. in a humidified 5% CO2 incubator. Following incubation, cells were fixed with 4% paraformaldehyde and stained with DAPI for nuclei visualization. The images were acquired on the InCell 2200 high content imager (GE, now […]), and quantified using InCell Analyzer image analysis software. Z prime factor, signal-to-background and coefficient of variation were calculated for each assays plate using mean and standard deviation values of the negative (vehicle) and positive (bortezomib) control wells to ensure assay robustness. Raw cell count data for test compounds was normalized to percent viability relative to the DMSO vehicle control. Data was plotted in GraphPad Prism using a variable slope 4-parameter fit.

LN229 MGMT+ MMR− cells = test system: LN229 MGMT+ MMR− cells
Experimental: as §1, §2, §3

LN229 MGMT− MMR+ cells = test system: LN229 MGMT− MMR+ cells
Experimental: as §1, §2, §3

LN229 MGMT− MMR− cells = test system: LN229 MGMT− MMR− cells
Experimental: as §1, §2, §3

Row | SMILES | IC50 (LN229 MGMT+ MMR+ cells) [µM] | IC50 (LN229 MGMT+ MMR− cells) [µM] | IC50 (LN229 MGMT− MMR+ cells) [µM] | IC50 (LN229 MGMT− MMR− cells) [µM]
1 | O=C(Nc1nccs1)c1ncn2c(=O)n(CCF)nnc12 [Compound I-7, 3-(2-fluoroethyl)-4-oxo-N-(1,3-thiazol-2-yl)-3H,4H-imidazo[4,3-d][1,2,3,5]tetrazine-8-carboxamide] | < 10 | < 10 | < 10 | < 10
2 | [2H]C([2H])([2H])NC(=O)c1ncn2c(=O)n(CCF)nnc12 [Compound I-19, 3-(2-fluoroethyl)-N-(D3)methyl-4-oxo-3H,4H-imidazo[4,3-d][1,2,3,5]tetrazine-8-carboxamide] | > 80 | > 80 | 50 to 80 | < 10
3 | O=C(c1ncn2c(=O)n(CCF)nnc12)N1CCC1 [Compound I-9, 8-(azetidine-1-carbonyl)-3-(2-fluoroethyl)-3H,4H-imidazo[4,3-d][1,2,3,5]tetrazin-4-one] | > 80 | > 80 | 10 to 20 | < 10
4 | O=C(Nc1ccccn1)c1ncn2c(=O)n(CCF)nnc12 [Compound I-8, 3-(2-fluoroethyl)-4-oxo-N-(pyridin-2-yl)-3H,4H-imidazo[4,3-d][1,2,3,5]tetrazine-8-carboxamide] | > 80 | > 80 | 10 to 20 | < 10
5 | O=C(c1ncn2c(=O)n(CCF)nnc12)N1CCCC1 [Compound I-10, 3-(2-fluoroethyl)-8-(pyrrolidine-1-carbonyl)-3H,4H-imidazo[4,3-d][1,2,3,5]tetrazin-4-one] | > 80 | > 80 | 20 to 50 | < 10
6 | CCCN(C)C(=O)c1ncn2c(=O)n(CCF)nnc12 [Compound I-17, 3-(2-fluoroethyl)-N-methyl-4-oxo-N-propyl-3H,4H-imidazo[4,3-d][1,2,3,5]tetrazine-8-carboxamide] | > 80 | > 80 | > 80 | 20 to 50
7 | CCCN(CCC)C(=O)c1ncn2c(=O)n(CCF)nnc12 [Compound I-13, 3-(2-fluoroethyl)-4-oxo-N,N-dipropyl-3H,4H-imidazo[4,3-d][1,2,3,5]tetrazine-8-carboxamide] | 20 to 50 | 20 to 50 | 20 to 50 | 10 to 20
8 | CCCN(CC)C(=O)c1ncn2c(=O)n(CCF)nnc12 [Compound I-18, N-ethyl-3-(2-fluoroethyl)-4-oxo-N-propyl-3H,4H-imidazo[4,3-d][1,2,3,5]tetrazine-8-carboxamide] | > 80 | > 80 | > 80 | 20 to 50
9 | [2H]C([2H])([2H])N(Cc1ccccc1)C(=O)c1ncn2c(=O)n(CCF)nnc12 [Compound I-20, N-benzyl-3-(2-fluoroethyl)-N-(2H3)methyl-4-oxo-3H,4H-imidazo[4,3-][1,2,3,5]tetrazine-8-carboxamide] | > 80 | > 80 | 50 to 80 | < 10
10 | O=C(NC1CCC1)c1ncn2c(=O)n(CCF)nnc12 [Compound I-5, N-cyclobutyl-3-(2-fluoroethyl)-4-oxo-3H,4H-imidazo[4,3-d][1,2,3,5]tetrazine-8-carboxamide] | > 80 | > 80 | 10 to 20 | < 10
11 | CN(C)C(=O)c1ncn2c(=O)n(CCF)nnc12 [Compound I-6, 3-(2-fluoroethyl)-N,N-dimethyl-4-oxo-3H,4H-imidazo[4,3-d][1,2,3,5]tetrazine-8-carboxamide] | > 80 | > 80 | 20 to 50 | 10 to 20
12 | O=C(NC1CC1)c1ncn2c(=O)n(CCF)nnc12 [Compound I-4, N-cyclopropyl-3-(2-fluoroethyl)-4-oxo-3H,4H-imidazo[4,3-d][1,2,3,5]tetrazine-8-carboxamide] | > 80 | > 80 | 10 to 20 | < 10

More lines, now with the values ahead:

Row | IC50 (LN229 MGMT+ MMR+ cells) [µM] | IC50 (LN229 MGMT+ MMR− cells) [µM] | IC50 (LN229 MGMT− MMR+ cells) [µM] | IC50 (LN229 MGMT− MMR− cells) [µM] | SMILES
13 | > 80 | > 80 | < 10 | < 10 | CN(C)CCNC(=O)c1ncn2c(=O)n(CCF)nnc12 [Compound I-12, N-[2-(dimethylamino)ethyl]-3-(2-fluoroethyl)-4-oxo-3H,4H-imidazo[4,3-d][1,2,3,5]tetrazine-8-carboxamide hydrochloride]
14 | > 80 | > 80 | 50 to 80 | 10 to 20 | CCN(CC)C(=O)c1ncn2c(=O)n(CCF)nnc12 [Compound I-15, N,N-diethyl-3-(2-fluoroethyl)-4-oxo-3H,4H-imidazo[4,3-d][1,2,3,5]tetrazine-8-carboxamide]
15 | > 80 | > 80 | 20 to 50 | 10 to 20 | CCN(C)C(=O)c1ncn2c(=O)n(CCF)nnc12 [Compound I-14, N-ethyl-3-(2-fluoroethyl)-N-methyl-4-oxo-3H,4H-imidazo[4,3-d][1,2,3,5]tetrazine-8-carboxamide]
16 | > 80 | > 80 | 10 to 20 | < 10 | CCNC(=O)c1ncn2c(=O)n(CCF)nnc12 [Compound I-2, N-ethyl-3-(2-fluoroethyl)-4-oxo-3H,4H-imidazo[4,3-d][1,2,3,5]tetrazine-8-carboxamide]
17 | > 80 | > 80 | < 10 | < 10 | O=C(NCC(F)(F)F)c1ncn2c(=O)n(CCF)nnc12 [Compound I-3, 3-(2-fluoroethyl)-4-oxo-N-(2,2,2-trifluoroethyl)-3H,4H-imidazo[4,3-d][1,2,3,5]tetrazine-carboxamide]
18 | > 80 | > 80 | 10 to 20 | < 10 | CCCNC(=O)c1ncn2c(=O)n(CCF)nnc12 [Compound I-16, 3-(2-fluoroethyl)-4-oxo-N-propyl-3H,4H-imidazo[4,3-d][1,2,3,5]tetrazine-8-carboxamide]
